Assay results taken from US20060009435A1, “Synthesis and powder preparation of fluticasone propionate” (priority 2004, published 2006).
Where “and” joins values, the source holds several entries; their conditions need not be identical. Equal entries are not always repeated. Entries after “also recorded” stand apart in the source; their conditions may differ. Where two headings read alike, the source gives them in different places.

Tests used:
Format in all cases: physicochemical
[1] = X-ray powder diffraction of the powder (crystalline or amorphous morphology)
Experimental: X-ray diffraction data were acquired using a PHILIPS X-ray diffractometer model PW1050-70 set at 40 kV, 28 mA, using 1.54178 Å (Kα), diversion slit of 1°, receiving slit of 0.2 mm, scattering slit of 1° and a graphite monochromator.

[2] = SEM micrograph of particle shape
[3] = Observation of powder flow, agglomeration tendency and electrostatic charge
[4] = Particle size distribution by dynamic light scattering (Malvern Mastersizer 2000); settings: for particle size D(0.10) / particle size D(0.20) / particle size D(0.50) / particle size D(0.80) / particle size D(0.90) / particle size D(0.95) / particle size D(0.98) / particle size D(0.99) / particle size D(1.00): dynamic light scattering; for Particle size distribution D(v, 0.1), 0.1 quantile / Particle size distribution D(v, 0.5), 0.5 quantile / Particle size distribution D(v, 0.9), 0.9 quantile / Particle size distribution D(v, 0.95), 0.95 quantile: light scattering
Experimental: Particle size was measured on a dynamic light scattering device by Malvern model Mastersizer 2000, using a measuring range of 0.02-2000 μm, accuracy level of 1% at the median, helium neon laser as a red light source, and solid state light source as a blue light source. Particle size distributions are presented as the average particle size of specified percentiles, including the flanking 0.1 and 0.9 quantiles and the median 0.5 quantile of the overall particle size distribution versus volume curve.

Row | SMILES | Morphology by X-ray powder diffraction pattern [1] | Particle shape (SEM micrograph) [2] | Electrostatic charge of the powder [3] | Powder characteristics (flow and morphology of the powder) [3] | Tendency to agglomerate [3] | Particle size median [4] | particle size D(0.10) [4] | particle size D(0.20) [4] | particle size D(0.50) [4] | particle size D(0.80) [4] | particle size D(0.90) [4] | particle size D(0.95) [4] | particle size D(0.98) [4] | particle size D(0.99) [4] | particle size D(1.00) [4] | Particle size distribution D(v, 0.1), 0.1 quantile [4] | Particle size distribution D(v, 0.5), 0.5 quantile [4] | Particle size distribution D(v, 0.9), 0.9 quantile [4] | Particle size distribution D(v, 0.95), 0.95 quantile [4] | further results
1 | CCC(=O)O[C@]1(C(=O)SCF)[C@H](C)C[C@H]2[C@@H]3C[C@H](F)C4=CC(=O)C=C[C@]4(C)[C@@]3(F)[C@@H](O)C[C@@]21C [Example 13, fluticasone propionate] | crystalline morphology | regular spherical shape and have smooth surface; also recorded: uniform spherical shape | did not exhibit any static electricity | Free flowing crystalline powder | did not exhibit a tendency to agglomerate; also recorded: did not exhibit any tendency to agglomerate; also recorded: that does not tend to agglomerate | Particle size median: 2.21 microns | 0.95 micron | 1.31 micron | 2.21 microns | 3.43 microns | 4.23 microns | 4.96 microns | 5.82 microns | 6.37 microns | 8.11 microns | 0.95 μ | 2.21 μ | 4.23 μ | 4.96 μ | –
2 | CCC(=O)O[C@]1(C(=O)SCF)[C@H](C)C[C@H]2[C@@H]3C[C@H](F)C4=CC(=O)C=C[C@]4(C)[C@@]3(F)[C@@H](O)C[C@@]21C [Example 15, fluticasone propionate] | – | – | – | Free flowing crystalline powder | did not exhibit a tendency to agglomerate; also recorded: that does not tend to agglomerate | Particle size median 2.67 microns; | 1.06 micron | 1.52 micron | 2.67 microns | 4.51 microns | 5.95 microns | 7.51 microns | 9.81 microns | 11.67 microns | – | 1.06 μ | 2.67 μ | – | – | –
3 | CCC(=O)O[C@]1(C(=O)SCF)[C@H](C)C[C@H]2[C@@H]3C[C@H](F)C4=CC(=O)C=C[C@]4(C)[C@@]3(F)[C@@H](O)C[C@@]21C [Example 14, fluticasone propionate] | – | – | – | Free flowing crystalline powder | did not exhibit a tendency to agglomerate; also recorded: that does not tend to agglomerate | Particle size median: 2.14 microns; | 0.96 micron | 1.27 micron | 2.14 microns | 3.44 microns | 4.36 microns | 5.27 microns | 6.44 microns | 7.32 microns | 13.54 microns | 0.96 μ | 2.14 μ | 4.36 μ | 5.27 μ | –
4 | CCC(=O)O[C@]1(C(=O)SCF)[C@H](C)C[C@H]2[C@@H]3C[C@H](F)C4=CC(=O)C=C[C@]4(C)[C@@]3(F)[C@@H](O)C[C@@]21C [Example 16, fluticasone propionate] | low level of a crystalline morphology; also recorded: mostly amorphous morphology | – | – | Partially amorphous powder | – | Particle size median 4.10 microns; | 1.90 micron | 2.46 micron | 4.11 microns | 6.70 microns | 8.40 microns | 9.86 microns | 11.35 microns | 12.10 microns | 14.24 microns | 1.90 μ | 4.11 μ and 4.10 μ | 8.40 μ and 8.39 μ | 9.86 μ | particle size of the powder [4]: less than 10 microns
5 | CCC(=O)O[C@]1(C(=O)SCF)[C@H](C)C[C@H]2[C@@H]3C[C@H](F)C4=CC(=O)C=C[C@]4(C)[C@@]3(F)[C@@H](O)C[C@@]21C [Example 12, fluticasone propionate] | – | irregular shape of the particles; also recorded: irregular jaggedly shaped particles | tended to accumulate a considerable amount of static charge; also recorded: tended to accumulate a considerable amount of electrostatic charge | – | generally tended to agglomerate; also recorded: high tendency to agglomerate | – | – | – | – | – | – | – | – | – | – | – | – | – | – | Particle shape (SEM micrograph) ([2]; listed as Reference Example 12): irregular jaggedly shape; particle size distribution in words ([4]; air-jet milled, data not shown): either too many oversized particles or too many undersized particles; also recorded: unsatisfactory size distribution
